Source: patent EP0037049A1, “Biphenylyl-imidazolylethane derivatives, process for their preparation and medicaments containing them” (BAYER AG, priority 1980, dated 1981)

System: Dermatophyten, Schimmelpilze, Hefen
Experiment: Antifungal in-vitro activity, serial dilution test
Format: cell-based
Details: incubation at 28°C, 24 h for yeasts, 96 h for dermatophytes and moulds, activity stated to be superior to prior-art compounds (A), (B), (C) and (D)
Procedure: Die in-vitro-Prüfung wurde im Reihenverdünnungstest mit Keiminokula von durchschnittlich […] Substrat durchgeführt. Als Nährmedium dienten • a) für Dermatophyten und Schimmelpilze: Sabourand's milieu d'epresive • b) für Hefen: • Isotonic Sensitest-Broth von Oxid.
Die Bebrütungstemperatur betrug 28°C; Bebrütungsdauer war 24 Stunden bei Hefen und 96 Stunden bei Dermatophyten und Schimmelpilzen.

SMILES: Clc1ccccc1C(Cn1ccnc1)c1ccc(-c2ccccc2)cc1 (stereo not shown) [Beispiel 5]
- Antimykotische in-vitro-Wirksamkeit (Wirkung): sehr gute Wirkung

SMILES: Fc1ccccc1C(Cn1ccnc1)c1ccc(-c2ccccc2)cc1 (stereo not shown) [Beispiel 6]
- Antimykotische in-vitro-Wirksamkeit (Wirkung): sehr gute Wirkung

SMILES: Clc1cccc(C(Cn2ccnc2)c2ccc(-c3ccccc3)cc2)c1 (stereo not shown) [Beispiel 7]
- Antimykotische in-vitro-Wirksamkeit (Wirkung): sehr gute Wirkung

SMILES: Clc1ccc(-c2ccc(C(Cn3cncn3)c3ccccc3Cl)cc2)cc1 (stereo not shown) [Beispiel 8]
- Antimykotische in-vitro-Wirksamkeit (Wirkung): sehr gute Wirkung
